Assay results published in patent US9308198B2, “Treatment, prevention, and reversal of alcohol-induced brain disease” (priority 2006, dated 2016).
Where two headings read alike, the source gives them in different places.

What was measured:
IGF-I receptors = conditions: pup cerebellar membrane extracts, chronic gestational ethanol exposure relative to control; not dose-dependent
Protocol: Fresh frozen tissue (˜100 mg) was homogenized in 5 volumes of NP-40 lysis buffer (50 mM Tris-HCl, pH 7.5, 1% NP-40, 150 mM NaCl, 1 mM EDTA, 2 mM EGTA) containing protease inhibitors (1 mM PMSF, 0.1 mM TPCK, 1 μg/ml aprotinin, 1 μg/ml pepstatin A, 0.5 μg/ml leupeptin, 1 mM NaF, 1 mM Na4P2O7). Protein concentrations were determined using the bicinchoninic acid (BCA) assay (Pierce, Rockford, Ill.). Exploratory studies determined the amounts of protein and concentrations of radiolabeled ligand required to achieve 20% specific binding. Insulin receptor binding assays were performed using 100 μg protein. IGF-I binding assays required 25 μg protein per sample, and IGF-II receptor binding assays were optimized using 10 μg protein. […]
All reactions were performed in 1.5 ml Eppendorff tubes, and the incubations were performed at 4° C. for 16 hours with gentle platform agitation. […] The samples were counted for 1 minute in an LKB CompuGamma CS Gamma counter. Specific binding was calculated by subtracting fmol of non-specific binding, i.e., amount bound in the presence of cold ligand, from the total fmol bound (absence of unlabeled competitive ligand). The results were analyzed and plotted using the GraphPad Prism 4 software (GraphPad Software, Inc., San Diego, Calif.).

insulin receptor = conditions: chronic ethanol feeding; temporal lobe, hypothalamus, and cerebellum
Excerpt: (§1) Male (˜200 g) Long Evans rats (Charles River Laboratories, Cambridge, Mass.) were fed isocaloric liquid diets (BioServ, Frenchtown, N.J.) in which ethanol comprised 0% or 37% of the caloric content (9.25% v/v) for 6 weeks (Yeon et al., Hepatology 38:703 (2003)). A chow fed control group was also studied. Rats were monitored daily to ensure equivalent food consumption and maintenance of body weight. Upon sacrifice, the brains were harvested and either immersion fixed in Histochoice fixative (Amresco Corp., Solon, Ohio) for paraffin embedding, or sliced fresh to micro-dissect temporal cortex, hypothalamus, and cerebellum. The fresh tissue blocks were snap frozen in a dry ice-methanol bath and stored at −80° C. for mRNA and protein studies.
(§2) Fresh frozen tissue (˜100 mg) was homogenized in 5 volumes of NP-40 lysis buffer (50 mM Tris-HCl, pH 7.5, 1% NP-40, 150 mM NaCl, 1 mM EDTA, 2 mM EGTA) containing protease inhibitors (1 mM PMSF, 0.1 mM TPCK, 1 μg/ml aprotinin, 1 μg/ml pepstatin A, 0.5 μg/ml leupeptin, 1 mM NaF, 1 mM Na4P2O7). Protein concentrations were determined using the bicinchoninic acid (BCA) assay (Pierce, Rockford, Ill.). Exploratory studies determined the amounts of protein and concentrations of radiolabeled ligand required to achieve 20% specific binding. Insulin receptor binding assays were performed using 100 μg protein. IGF-I binding assays required 25 μg protein per sample, and IGF-II receptor binding assays were optimized using 10 μg protein. Competitive equilibrium binding assays were used to assess growth factor binding in relation to ethanol exposure. For total binding, duplicate individual protein samples were incubated in 100 μl reactions containing binding buffer (100 mM HEPES, pH 8.0, 118 mM NaCl, 1.2 mM MgSO4, 8.8 mM dextrose, 5 mM KCl, 1% bovine serum albumin) and 100 nCi/ml of [^125I] (2000 Ci/mmol; […]) insulin, IGF-I, or IGF-II. To measure non-specific binding, replicate samples were identically prepared but with the addition of 0.1 μM unlabeled (cold) ligand.
(§3) All reactions were performed in 1.5 ml Eppendorff tubes, and the incubations were performed at 4° C. for 16 hours with gentle platform agitation. Bound radiolabeled tracer was then precipitated by adding 500 μl of 0.15% bovine gamma globulin (prepared in 100 mM Tris-HCl, pH 8.0) followed by 400 μl 37.5% polyethylene glycol 8000 (PEG-8000; prepared in 100 mM Tris-HCl, pH 8.0) to each tube. […] The samples were counted for 1 minute in an LKB CompuGamma CS Gamma counter. Specific binding was calculated by subtracting fmol of non-specific binding, i.e., amount bound in the presence of cold ligand, from the total fmol bound (absence of unlabeled competitive ligand). The results were analyzed and plotted using the GraphPad Prism 4 software (GraphPad Software, Inc., San Diego, Calif.). […]

IGF-I receptor = conditions: chronic ethanol feeding; temporal lobe, hypothalamus, and cerebellum
Excerpt: as §1, §2, §3

IGF-II receptor = conditions: chronic ethanol feeding
Excerpt: as §1, §2, §3

[1] = test system: cerebellar membrane cholesterol content; conditions: 8% ethanol diet group, pups
Protocol: Cholesterol content was measured using the Amplex Red assay kit (Molecular Probes, Eugene, Oreg.) according to the manufacturer's protocol. […] Briefly, tissue homogenates were prepared in RIPA buffer as described above. Samples, serially diluted in 1× reaction buffer (provided with the kit), were incubated with 150 μM Amplex Red reagent, 1 U/ml horseradish peroxidase, 1 U/ml cholesterol oxidase, and 0.1 U/ml cholesterol esterase in final reaction volumes of 100 μl. Reactions were incubated at 37° C. for 30 minutes and fluorescence was measured in a Fluorocount microplate reader (Packard Instrument Co., Meriden, Conn.) (Ex 560 nm/Em 590 nm). A standard curve was simultaneously generated using a cholesterol standard provided with the kit. The levels of cholesterol were normalized to protein concentration in the samples.

AChE mRNA = conditions: chronic ethanol feeding; temporal lobe, hypothalamus, cerebellum
Excerpt: as §1
(§4) Total RNA was isolated from brain tissue using TRIzol reagent (Invitrogen, Carlsbad, Calif.) according to the manufacturer's protocol. RNA concentrations and purity were determined from the absorbances measured at 260 nm and 280 nm. […] Real time quantitative RT-PCR was used to measure mRNA levels of insulin, IGF-I, and IGF-II growth factors, their corresponding receptors, neuronal (Hu), astrocytic (glial fibrillary acidic protein; GFAP), oligodendroglial (myelin-associated glycoprotein-1; MAG-1), microglial (AIF1), and endothelial (endothelin-1; ET-1) cell genes, acetyl cholinesterase (AChE), and choline acetyltransferase (ChAT). […]

ChAT mRNA = conditions: chronic ethanol feeding; hypothalamus and cerebellum
Excerpt: as §1, §4

With `CCO` [ethanol] the “impairment of IGF-I receptor binding” value (IGF-I receptors) was about 80%, the insulin receptor binding (insulin receptor) was “significantly reduced” and the IGF-I receptor binding (IGF-I receptor) was “significantly reduced”. The IGF-II receptor binding (IGF-II receptor; cerebella, relative to control rats) was “significantly lower”, the IGF-II receptor binding (IGF-II receptor; temporal lobe and hypothalamus) was “relatively preserved” and the “reduction of cerebellar membrane cholesterol content relative to control” value [1] was about 50%. For the same compound, the “expression of AChE” value (AChE mRNA) was “did not significantly alter” and the “ChAT mRNA expression” value (ChAT mRNA) was “significantly reduced”.
